Reference: PMC12586182 (Frontiers in Oncology, 2025)

Legend:
[1] = target: T1, NEK6 (Homo sapiens, UniProt Q9HC98); experiment: Kinase panel profiling at 1 µmol/L (mobility shift assay, Carna); format: biochemical; details: 1 µmol/L of BTK inhibitor
T1 construct: purchased Carna Biosciences

[2] = target: T2, SYK (Homo sapiens, UniProt P43405); experiment: as above; format: biochemical; details: 1 µmol/L of BTK inhibitor
T2 construct: purchased Carna Biosciences

[3] = target: T3, NEK9 (Homo sapiens, UniProt Q8TD19); experiment: as above; format: biochemical; details: 1 µmol/L of BTK inhibitor
T3 construct: purchased Carna Biosciences
T3 sequence (Q8TD19 1-979): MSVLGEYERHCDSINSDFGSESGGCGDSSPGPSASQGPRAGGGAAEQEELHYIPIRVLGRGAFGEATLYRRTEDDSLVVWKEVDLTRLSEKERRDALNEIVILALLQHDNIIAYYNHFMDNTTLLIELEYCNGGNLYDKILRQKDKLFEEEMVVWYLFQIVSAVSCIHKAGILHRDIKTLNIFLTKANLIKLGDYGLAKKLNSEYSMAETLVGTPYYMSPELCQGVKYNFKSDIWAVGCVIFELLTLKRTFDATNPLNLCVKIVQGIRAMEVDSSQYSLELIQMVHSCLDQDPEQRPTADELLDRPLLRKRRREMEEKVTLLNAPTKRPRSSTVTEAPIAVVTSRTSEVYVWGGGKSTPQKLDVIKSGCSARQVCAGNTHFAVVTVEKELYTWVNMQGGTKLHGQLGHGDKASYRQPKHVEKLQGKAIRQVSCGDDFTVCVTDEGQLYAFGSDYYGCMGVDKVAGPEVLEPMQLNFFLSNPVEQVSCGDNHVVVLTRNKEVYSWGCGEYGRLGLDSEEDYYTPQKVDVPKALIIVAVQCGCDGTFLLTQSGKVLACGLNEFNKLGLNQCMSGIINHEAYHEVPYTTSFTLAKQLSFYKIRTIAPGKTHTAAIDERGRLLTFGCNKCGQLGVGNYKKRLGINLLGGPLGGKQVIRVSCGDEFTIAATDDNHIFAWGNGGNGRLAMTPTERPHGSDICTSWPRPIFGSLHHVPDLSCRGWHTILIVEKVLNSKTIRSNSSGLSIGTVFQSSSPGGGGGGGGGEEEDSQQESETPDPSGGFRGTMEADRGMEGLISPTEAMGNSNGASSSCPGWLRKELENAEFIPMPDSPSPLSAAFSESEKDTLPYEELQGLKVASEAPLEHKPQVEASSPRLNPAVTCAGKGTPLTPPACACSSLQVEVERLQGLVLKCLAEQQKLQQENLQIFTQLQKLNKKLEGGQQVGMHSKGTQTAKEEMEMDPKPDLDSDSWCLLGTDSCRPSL

[4] = target: T4, SPHK1 (Homo sapiens, UniProt Q9NYA1); experiment: as above; format: biochemical; details: 1 µmol/L of BTK inhibitor
T4 construct: purchased Carna Biosciences
T4 sequence (Q9NYA1 whole entry): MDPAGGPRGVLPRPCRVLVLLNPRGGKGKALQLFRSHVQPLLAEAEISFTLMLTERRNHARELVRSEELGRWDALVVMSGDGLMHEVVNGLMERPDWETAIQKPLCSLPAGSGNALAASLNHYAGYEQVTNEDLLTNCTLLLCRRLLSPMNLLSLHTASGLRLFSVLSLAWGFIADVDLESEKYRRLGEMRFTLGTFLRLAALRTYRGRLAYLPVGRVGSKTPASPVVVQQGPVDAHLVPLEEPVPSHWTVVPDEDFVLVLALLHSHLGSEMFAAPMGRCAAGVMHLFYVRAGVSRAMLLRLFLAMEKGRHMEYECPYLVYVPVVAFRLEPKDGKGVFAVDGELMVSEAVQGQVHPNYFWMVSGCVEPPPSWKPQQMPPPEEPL

[5] = target: T5, FYN [isoform a] (Homo sapiens, UniProt P06241); experiment: as above; format: biochemical; details: 1 µmol/L of BTK inhibitor
T5 construct: purchased Carna Biosciences
T5 sequence (P06241 whole entry, canonical isoform): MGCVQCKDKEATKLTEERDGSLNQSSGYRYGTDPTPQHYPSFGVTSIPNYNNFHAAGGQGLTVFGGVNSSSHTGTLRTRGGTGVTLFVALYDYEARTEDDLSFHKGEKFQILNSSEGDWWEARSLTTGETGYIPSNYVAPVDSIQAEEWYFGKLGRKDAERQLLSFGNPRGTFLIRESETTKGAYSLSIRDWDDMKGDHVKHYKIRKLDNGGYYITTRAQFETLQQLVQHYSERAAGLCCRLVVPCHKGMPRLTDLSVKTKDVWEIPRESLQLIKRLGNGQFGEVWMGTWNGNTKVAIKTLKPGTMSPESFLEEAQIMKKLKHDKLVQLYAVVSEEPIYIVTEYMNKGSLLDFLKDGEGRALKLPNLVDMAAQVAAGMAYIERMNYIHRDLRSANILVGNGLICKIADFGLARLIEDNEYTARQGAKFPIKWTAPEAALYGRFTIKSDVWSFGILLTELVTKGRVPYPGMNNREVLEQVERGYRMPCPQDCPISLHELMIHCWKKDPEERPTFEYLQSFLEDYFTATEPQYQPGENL

[6] = target: T6, GSK3β (Homo sapiens, UniProt P49841); experiment: as above; format: biochemical; details: 1 µmol/L of BTK inhibitor
T6 construct: purchased Carna Biosciences
T6 sequence (P49841 whole entry): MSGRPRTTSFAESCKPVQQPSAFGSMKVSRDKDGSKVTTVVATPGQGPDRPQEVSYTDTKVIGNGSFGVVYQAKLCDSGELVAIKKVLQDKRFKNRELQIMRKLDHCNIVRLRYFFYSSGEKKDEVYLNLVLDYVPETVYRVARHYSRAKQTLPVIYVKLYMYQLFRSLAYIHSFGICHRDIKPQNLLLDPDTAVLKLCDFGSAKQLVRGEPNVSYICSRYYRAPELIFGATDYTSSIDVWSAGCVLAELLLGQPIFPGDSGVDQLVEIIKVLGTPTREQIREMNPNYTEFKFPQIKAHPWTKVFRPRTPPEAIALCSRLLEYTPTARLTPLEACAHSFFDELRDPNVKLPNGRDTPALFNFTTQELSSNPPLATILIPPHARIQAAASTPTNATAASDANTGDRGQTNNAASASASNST

[7] = target: T7, MAP4K2 (Homo sapiens, UniProt Q12851); experiment: as above; format: biochemical; details: 1 µmol/L of BTK inhibitor
T7 construct: purchased Carna Biosciences
T7 sequence (Q12851 1-820): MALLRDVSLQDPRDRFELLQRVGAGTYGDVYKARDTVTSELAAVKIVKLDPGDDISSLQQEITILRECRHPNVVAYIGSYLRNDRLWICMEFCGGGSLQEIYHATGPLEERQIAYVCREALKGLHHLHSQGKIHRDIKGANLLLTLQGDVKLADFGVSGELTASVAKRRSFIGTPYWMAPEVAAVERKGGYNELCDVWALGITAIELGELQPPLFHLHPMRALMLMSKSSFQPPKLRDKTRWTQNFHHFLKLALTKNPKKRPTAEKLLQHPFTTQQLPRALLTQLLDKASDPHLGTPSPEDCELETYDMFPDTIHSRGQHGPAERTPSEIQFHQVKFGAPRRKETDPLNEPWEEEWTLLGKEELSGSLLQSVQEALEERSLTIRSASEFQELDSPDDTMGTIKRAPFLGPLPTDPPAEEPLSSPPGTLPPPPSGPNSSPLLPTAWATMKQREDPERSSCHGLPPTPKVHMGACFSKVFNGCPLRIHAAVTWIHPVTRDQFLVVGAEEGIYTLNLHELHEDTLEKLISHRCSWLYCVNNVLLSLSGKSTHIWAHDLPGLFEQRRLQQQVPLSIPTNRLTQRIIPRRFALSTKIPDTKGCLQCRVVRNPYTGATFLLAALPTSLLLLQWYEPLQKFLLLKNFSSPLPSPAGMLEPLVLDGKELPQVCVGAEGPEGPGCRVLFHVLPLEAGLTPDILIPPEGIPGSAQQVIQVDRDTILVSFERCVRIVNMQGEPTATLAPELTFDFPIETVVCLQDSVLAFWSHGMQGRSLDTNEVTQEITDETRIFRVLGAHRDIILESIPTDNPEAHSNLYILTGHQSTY

[8] = target: T8, CaMK2γ (Homo sapiens, UniProt Q13555); experiment: as above; format: biochemical; details: 1 µmol/L of BTK inhibitor
T8 construct: purchased Carna Biosciences
T8 sequence (Q13555 whole entry): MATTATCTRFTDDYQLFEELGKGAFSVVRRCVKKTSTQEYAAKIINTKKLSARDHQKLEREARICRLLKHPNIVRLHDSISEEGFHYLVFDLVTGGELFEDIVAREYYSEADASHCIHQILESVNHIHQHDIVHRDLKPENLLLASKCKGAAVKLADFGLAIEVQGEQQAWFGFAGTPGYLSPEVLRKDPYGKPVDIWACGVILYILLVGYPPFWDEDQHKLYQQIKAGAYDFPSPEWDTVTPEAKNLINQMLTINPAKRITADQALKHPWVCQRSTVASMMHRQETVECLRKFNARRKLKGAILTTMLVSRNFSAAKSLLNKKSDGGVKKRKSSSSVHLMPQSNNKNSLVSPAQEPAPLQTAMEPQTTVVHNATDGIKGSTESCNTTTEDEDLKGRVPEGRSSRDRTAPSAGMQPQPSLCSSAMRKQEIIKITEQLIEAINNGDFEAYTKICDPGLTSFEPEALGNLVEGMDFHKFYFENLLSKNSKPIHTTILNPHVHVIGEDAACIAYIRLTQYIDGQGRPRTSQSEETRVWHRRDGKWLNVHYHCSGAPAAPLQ

[9] = target: T9, EPHA7 (Homo sapiens, UniProt Q15375); experiment: as above; format: biochemical; details: 1 µmol/L of BTK inhibitor
T9 construct: purchased Carna Biosciences
T9 sequence (Q15375 28-998): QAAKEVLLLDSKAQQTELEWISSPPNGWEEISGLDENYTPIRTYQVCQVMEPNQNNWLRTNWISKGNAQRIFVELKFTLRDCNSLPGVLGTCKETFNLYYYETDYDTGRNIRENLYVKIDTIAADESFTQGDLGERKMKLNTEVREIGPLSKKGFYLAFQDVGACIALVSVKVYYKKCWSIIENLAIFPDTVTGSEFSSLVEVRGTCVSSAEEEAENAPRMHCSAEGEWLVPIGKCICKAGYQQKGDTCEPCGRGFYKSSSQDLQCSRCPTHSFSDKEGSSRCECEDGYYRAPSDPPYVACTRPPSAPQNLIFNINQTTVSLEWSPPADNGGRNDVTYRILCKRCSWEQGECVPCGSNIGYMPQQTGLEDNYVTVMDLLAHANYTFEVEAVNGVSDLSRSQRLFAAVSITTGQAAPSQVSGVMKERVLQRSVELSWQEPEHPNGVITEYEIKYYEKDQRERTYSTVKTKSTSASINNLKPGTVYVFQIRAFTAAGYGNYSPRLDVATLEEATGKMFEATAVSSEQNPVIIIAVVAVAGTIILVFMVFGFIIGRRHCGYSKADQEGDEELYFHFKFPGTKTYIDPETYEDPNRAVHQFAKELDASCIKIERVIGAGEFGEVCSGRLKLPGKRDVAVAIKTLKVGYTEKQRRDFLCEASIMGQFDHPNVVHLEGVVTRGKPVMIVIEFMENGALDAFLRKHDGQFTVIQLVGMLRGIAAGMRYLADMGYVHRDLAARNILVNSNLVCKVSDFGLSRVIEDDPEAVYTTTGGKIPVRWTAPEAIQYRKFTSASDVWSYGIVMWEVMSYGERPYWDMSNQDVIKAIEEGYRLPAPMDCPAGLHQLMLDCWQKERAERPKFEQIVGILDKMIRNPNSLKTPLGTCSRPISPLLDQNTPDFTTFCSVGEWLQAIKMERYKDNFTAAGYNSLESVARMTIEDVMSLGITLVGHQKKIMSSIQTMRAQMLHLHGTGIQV

[10] = target: FGFR1 (Homo sapiens, UniProt P11362); experiment: Kinase enzyme activity assay (mobility shift assay, Carna); details: for Percentage inhibition of kinase enzyme activity: FGFR1, 1 µmol/L of BTK inhibitor
FGFR1, sequence (P11362 22-822): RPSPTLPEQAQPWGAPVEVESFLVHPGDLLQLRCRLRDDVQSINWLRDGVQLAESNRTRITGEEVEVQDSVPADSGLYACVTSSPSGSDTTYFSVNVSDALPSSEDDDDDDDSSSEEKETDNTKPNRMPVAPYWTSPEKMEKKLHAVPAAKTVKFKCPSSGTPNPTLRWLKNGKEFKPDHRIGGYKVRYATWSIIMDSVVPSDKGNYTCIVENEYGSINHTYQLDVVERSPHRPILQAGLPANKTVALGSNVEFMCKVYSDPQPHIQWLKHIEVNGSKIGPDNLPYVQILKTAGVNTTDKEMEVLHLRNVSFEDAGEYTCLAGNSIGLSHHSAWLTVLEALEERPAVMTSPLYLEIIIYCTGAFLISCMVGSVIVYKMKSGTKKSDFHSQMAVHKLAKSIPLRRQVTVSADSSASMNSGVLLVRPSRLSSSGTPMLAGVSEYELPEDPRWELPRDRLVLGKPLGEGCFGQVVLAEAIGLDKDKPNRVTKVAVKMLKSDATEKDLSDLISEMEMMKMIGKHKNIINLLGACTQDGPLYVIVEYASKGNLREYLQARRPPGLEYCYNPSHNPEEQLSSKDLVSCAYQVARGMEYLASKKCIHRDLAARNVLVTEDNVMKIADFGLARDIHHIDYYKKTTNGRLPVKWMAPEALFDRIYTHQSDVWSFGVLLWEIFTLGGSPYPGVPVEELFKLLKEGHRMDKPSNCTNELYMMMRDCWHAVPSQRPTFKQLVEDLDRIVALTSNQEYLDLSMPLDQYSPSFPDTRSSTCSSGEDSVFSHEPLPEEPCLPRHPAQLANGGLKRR

[11] = target: T10, AurA (Homo sapiens, UniProt O14965); experiment: Kinase panel profiling at 1 µmol/L (mobility shift assay, Carna); format: biochemical; details: 1 µmol/L of BTK inhibitor
T10 construct: purchased Carna Biosciences
T10 sequence (O14965 1-403): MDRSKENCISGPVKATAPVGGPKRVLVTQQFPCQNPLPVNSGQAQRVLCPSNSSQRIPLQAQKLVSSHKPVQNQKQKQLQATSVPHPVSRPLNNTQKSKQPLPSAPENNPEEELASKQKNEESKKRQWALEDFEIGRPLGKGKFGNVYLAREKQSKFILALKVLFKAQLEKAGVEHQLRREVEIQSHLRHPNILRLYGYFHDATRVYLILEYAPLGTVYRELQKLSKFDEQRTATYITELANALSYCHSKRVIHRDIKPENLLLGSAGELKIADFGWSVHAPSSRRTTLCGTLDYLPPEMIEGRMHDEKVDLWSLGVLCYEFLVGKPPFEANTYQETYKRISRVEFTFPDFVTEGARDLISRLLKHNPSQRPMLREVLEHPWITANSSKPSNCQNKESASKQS

[12] = target: T11, p38α (Homo sapiens, UniProt Q16539); experiment: as above; format: biochemical; details: 1 µmol/L of BTK inhibitor
T11 construct: purchased Carna Biosciences
T11 sequence (Q16539 whole entry): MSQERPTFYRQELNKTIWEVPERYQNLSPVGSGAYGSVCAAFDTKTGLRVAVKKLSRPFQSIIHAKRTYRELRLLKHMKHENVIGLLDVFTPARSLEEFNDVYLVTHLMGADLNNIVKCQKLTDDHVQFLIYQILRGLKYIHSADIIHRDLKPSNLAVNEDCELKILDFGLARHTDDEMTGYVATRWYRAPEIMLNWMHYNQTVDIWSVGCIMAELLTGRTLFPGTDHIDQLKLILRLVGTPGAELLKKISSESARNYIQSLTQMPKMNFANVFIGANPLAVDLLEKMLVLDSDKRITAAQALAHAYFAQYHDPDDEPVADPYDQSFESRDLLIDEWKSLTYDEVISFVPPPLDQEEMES

[13] = target: T12, PIM1 (Homo sapiens, UniProt P11309); experiment: as above; format: biochemical; details: 1 µmol/L of BTK inhibitor
T12 construct: purchased Carna Biosciences
T12 sequence (P11309 whole entry): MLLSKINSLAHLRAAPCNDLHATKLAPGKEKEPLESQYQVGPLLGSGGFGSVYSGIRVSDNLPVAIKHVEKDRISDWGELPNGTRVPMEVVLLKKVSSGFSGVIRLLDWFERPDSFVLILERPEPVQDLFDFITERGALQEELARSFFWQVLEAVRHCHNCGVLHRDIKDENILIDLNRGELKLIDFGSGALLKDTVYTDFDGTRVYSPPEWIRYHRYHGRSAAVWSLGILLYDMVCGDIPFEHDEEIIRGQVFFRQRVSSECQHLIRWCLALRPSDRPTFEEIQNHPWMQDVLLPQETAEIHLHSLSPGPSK

T1 sequence (Q9HC98 whole entry): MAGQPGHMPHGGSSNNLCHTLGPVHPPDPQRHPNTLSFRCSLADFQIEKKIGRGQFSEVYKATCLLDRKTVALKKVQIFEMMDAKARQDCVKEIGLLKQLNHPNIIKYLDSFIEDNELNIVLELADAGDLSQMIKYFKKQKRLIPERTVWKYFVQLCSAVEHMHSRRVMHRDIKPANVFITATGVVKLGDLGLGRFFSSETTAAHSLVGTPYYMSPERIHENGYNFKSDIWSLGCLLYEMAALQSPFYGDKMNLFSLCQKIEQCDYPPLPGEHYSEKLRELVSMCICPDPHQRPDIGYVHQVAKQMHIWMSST

SMILES | Percentage inhibition of kinase enzyme activity [1] | Percentage inhibition of kinase enzyme activity [2] | Percentage inhibition of kinase enzyme activity [3] | Percentage inhibition of kinase enzyme activity [4] | Percentage inhibition of kinase enzyme activity [5] | Percentage inhibition of kinase enzyme activity [6] | Percentage inhibition of kinase enzyme activity [7] | Percentage inhibition of kinase enzyme activity [8] | Percentage inhibition of kinase enzyme activity [9] | Percentage inhibition of kinase enzyme activity [10] | Percentage inhibition of kinase enzyme activity [11] | Percentage inhibition of kinase enzyme activity [12] | Percentage inhibition of kinase enzyme activity [13] | IC50 [10]
CC#CC(=O)N1CCC[C@H]1c1nc(-c2ccc(C(=O)Nc3ccccn3)cc2)c2c(N)nccn12 [acalabrutinib] | -5.54% | -19.36% | -3.18% | -3.15% | 5.84% | -2.39% | -11.21% | -1.85% | -3.54% | -2.28% | 2.34% | -0.75% | -4.28% | –
C=CC(=O)N1CCC[C@@H](n2nc(-c3ccc(Oc4ccccc4)cc3)c3c(N)ncnc32)C1 [ibrutinib] | 0.77% | -19.83% | -3.28% | -3.38% | 92.75% | -4.00% | -4.43% | -1.83% | 6.99% | 70.87% | 29.84% | -2.71% | – | –
O=C(c1ccc(Oc2ccccc2)cc1Cl)c1c[nH]c2ncnc(N[C@@H]3CC[C@@H](CO)OC3)c12 [nemtabrutinib] | -0.80% | 3.99% | -0.83% | -5.57% | – | -7.92% | 78.03% | 1.06% | 94.05% | 46.81% | 77.82% | 2.09% | -15.07% | 134 nM
COc1ccc(F)cc1C(=O)NCc1ccc(-c2nn([C@@H](C)C(F)(F)F)c(N)c2C(N)=O)cc1 [pirtobrutinib] | -2.92% | -13.08% | -2.20% | -10.15% | 12.27% | -23.01% | 3.56% | -1.71% | -9.86% | 3.30% | 27.17% | -2.18% | 3.95% | –
C=CC(=O)N1CCC([C@@H]2CCNc3c(C(N)=O)c(-c4ccc(Oc5ccccc5)cc4)nn32)CC1 [zanubrutinib] | – | – | – | – | – | – | – | – | -7.84% | -5.28% | – | – | – | –
